Assay results reported in patent publication US10287275B2, “16-member triamilide derivatives and uses thereof” (VICTOR PHARMA CO., LTD. ZHENJIANG, priority 2015, dated 2019).
≈ marks a conversion by molar mass, not a printed value.

Key:
Format in all cases: cell-based
Pasteurella 8229 = assay: Antibacterial MIC, agar-dilution or broth-dilution microtiter test; details: Strain D: Pasteurella 8229
Description: (§1) The MIC's in Table I and Table II were determined by standard agar-dilution assays or broth-dilution microtiter test.

Escherichia coli IN-F6-7 = assay: as above; details: INF67; Strain E: Escherichia coli IN-F6-7
Description: as §1

[1] = tested on: Actinobacillus pleuropneumoniae serotype 1; assay: as above; details: Strain A: Actinobacillus pleuropneumoniae serotype 1
Description: as §1

[2] = tested on: Actinobacillus pleuropneumoniae serotype 7; assay: as above; details: Strain B: Actinobacillus pleuropneumoniae serotype 7
Description: as §1

salmonella LD4-8 = assay: as above; details: LD48; Strain I: salmonella LD4-8
Description: as §1

[3] = tested on: Staphylococcus aureus 29213 (QC strain); assay: as above; details: Strain H: Staphylococcus aureus 29213 (QC strain)
Description: as §1

[4] = tested on: Streptococcus pneumoniae 2349; assay: as above; details: Strain L: Streptococcus pneumoniae 2349
Description: as §1

[5] = tested on: Staphylococcus aureus 5-1; assay: as above; details: 51; Strain G: Staphylococcus aureus 5-1
Description: as §1

[6] = tested on: Escherichia coli 25922 (QC strain); assay: as above; details: Strain F: Escherichia coli 25922 (QC strain)
Description: as §1

[7] = tested on: Klebsiella pneumoniae 3699; assay: as above; details: Strain K: Klebsiella pneumoniae 3699
Description: as §1

[8] = tested on: Klebsiella pneumoniae 3753; assay: as above; details: Strain J: Klebsiella pneumoniae 3753
Description: as §1

Pasteurella 8217 = assay: as above; details: Strain C: Pasteurella 8217
Description: as §1

[9] = tested on: Streptococcus pneumoniae 49619 (QC strain); assay: as above; details: Strain M: Streptococcus pneumoniae 49619 (QC strain)
Description: as §1

M. gallisepticum BG44T = assay: Mycoplasma susceptibility testing (MIC); details: Mycoplasmoides gallisepticum
Description: as §1

M. gallisepticum S6 = assay: Mycoplasma susceptibility testing (MIC); details: Mycoplasmoides gallisepticum
Description: as §1

M. hyorinis BTS-7 = assay: Mycoplasma susceptibility testing (MIC)
Description: as §1

| SMILES | MIC (M. gallisepticum BG44T) [µg/mL] | MIC (M. gallisepticum S6) [µg/mL] | MIC (M. hyorinis BTS-7) [µg/mL] | other results |
| --- | --- | --- | --- | --- |
| CC[C@H]1OC(=O)C[C@@H](O)[C@H](C)[C@@H](O[C@@H]2O[C@H](C)[C@@H](O)[C@H](N(C)C)[C@H]2O)[C@@H](CCN2CCCCC2)C[C@@H](C)C(=O)/C=C/C(C)=C/[C@@H]1CN1CCCC1 [Compound 4d, (4R,5S,6S,7R,9R,11E,13E,15R,16R)-6-(((2R,3R,4S,5S,6R)-4-(dimethylamino)-3,5-dihydroxy-6-methyltetrahydro-2H-pyran-2-yl)oxy)-16-ethyl-4-hydroxy-5,9,13-trimethyl-7-(2-(piperidin-1-yl)ethyl)-15-(pyrrolidin-1-ylmethyl)oxacyclohexadeca-11,13-diene-2,10-dione] | – | – | – | MIC (Pasteurella 8229): 128 µg/mL (≈ 178 µM); MIC (Escherichia coli IN-F6-7): > 256 µg/mL; MIC [1]: > 256 µg/mL; MIC [2]: > 256 µg/mL; MIC (salmonella LD4-8): > 256 µg/mL; MIC [3]: 256 µg/mL (≈ 356 µM); MIC [4]: 64 µg/mL (≈ 88.9 µM); MIC [5]: > 256 µg/mL; MIC [6]: > 256 µg/mL; MIC [7]: > 256 µg/mL; MIC [8]: > 256 µg/mL; MIC (Pasteurella 8217): 256 µg/mL (≈ 356 µM); MIC [9]: > 256 µg/mL |
| CC[C@H]1OC(=O)C[C@@H](O)[C@H](C)[C@@H](O[C@@H]2O[C@H](C)[C@@H](O)[C@H](N(C)C)[C@H]2O)[C@@H](CCN2CCCCC2)C[C@@H](C)C(=O)/C=C/C(C)=C/[C@@H]1CNCc1ccccc1 [Compound 4e, (4R,5S,6S,7R,9R,11E,13E,15R,16R)-15-((benzylamino)methyl)-6-(((2R,3R,4S,5S,6R)-4-(dimethylamino)-3,5-dihydroxy-6-methyltetrahydro-2H-pyran-2-yl)oxy)-16-ethyl-4-hydroxy-5,9,13-trimethyl-7-(2-(piperidin-1-yl)ethyl)oxacyclohexadeca-11,13-diene-2,10-dione] | – | – | – | MIC (Pasteurella 8229): 16 µg/mL (≈ 21.2 µM); MIC (Escherichia coli IN-F6-7): 256 µg/mL (≈ 339 µM); MIC [1]: 256 µg/mL (≈ 339 µM); MIC [2]: 256 µg/mL (≈ 339 µM); MIC (salmonella LD4-8): > 256 µg/mL; MIC [3]: 64 µg/mL (≈ 84.7 µM); MIC [4]: 64 µg/mL (≈ 84.7 µM); MIC [5]: 256 µg/mL (≈ 339 µM); MIC [6]: 256 µg/mL (≈ 339 µM); MIC [7]: > 256 µg/mL; MIC [8]: > 256 µg/mL; MIC (Pasteurella 8217): 32 µg/mL (≈ 42.3 µM); MIC [9]: 256 µg/mL (≈ 339 µM) |
| CC[C@H]1OC(=O)C[C@@H](O)[C@H](C)[C@@H](O[C@@H]2O[C@H](C)[C@@H](O)[C@H](N(C)C)[C@H]2O)[C@@H](CCN2CCCCC2)C[C@@H](C)C(=O)/C=C/C(C)=C/[C@@H]1CN(CC)Cc1ccccc1 [Compound 4i, (4R,5S,6S,7R,9R,11E,13E,15R,16R)-15-((benzyl(ethyl)amino)methyl)-6-(((2R,3R,4S,5S,6R)-4-(dimethylamino)-3,5-dihydroxy-6-methyltetrahydro-2H-pyran-2-yl)oxy)-16-ethyl-4-hydroxy-5,9,13-trimethyl-7-(2-(piperidin-1-yl)ethyl)oxacyclohexadeca-11,13-diene-2,10-dione] | < 0.12 | < 0.12 | 15.6 (≈ 19.9 µM) | – |
| CC[C@H]1OC(=O)C[C@@H](O)[C@H](C)[C@@H](O[C@@H]2O[C@H](C)[C@@H](O)[C@H](N(C)C)[C@H]2O)[C@@H](CCN2CCCCC2)C[C@@H](C)C(=O)/C=C/C(C)=C/[C@@H]1CN(Cc1ccccc1)C(C)C [Compound 4j, (4R,5S,6S,7R,9R,11E,13E,15R,16R)-15-((benzyl(isopropyl)amino)methyl)-6-(((2R,3R,4S,5S,6R)-4-(dimethylamino)-3,5-dihydroxy-6-methyltetrahydro-2H-pyran-2-yl)oxy)-16-ethyl-4-hydroxy-5,9,13-trimethyl-7-(2-(piperidin-1-yl)ethyl)oxacyclohexadeca-11,13-diene-2,10-dione] | < 0.12 | < 0.12 | 0.49 (≈ 0.614 µM) | – |
| CC[C@H]1OC(=O)C[C@@H](O)[C@H](C)[C@@H](O[C@@H]2O[C@H](C)[C@@H](O)[C@H](N(C)C)[C@H]2O)[C@@H](CCN2CC(C)CC(C)C2)C[C@@H](C)C(=O)/C=C/C(C)=C/[C@@H]1CN(Cc1ccccc1)C(C)C (stereo partly drawn) [Compound 8a, (4R,5S,6S,7R,9R,11E,13E,15R,16R)-15-((benzyl(isopropyl)amino)methyl)-6-(((2R,3R,4S,5S,6R)-4-(dimethylamino)-3,5-dihydroxy-6-methyltetrahydro-2H-pyran-2-yl)oxy)-7-(2-(3,5-dimethylpiperidin-1-yl)ethyl)-16-ethyl-4-hydroxy-5,9,13-trimethyloxacyclohexadeca-11,13-diene-2,10-dione] | < 0.12 | < 0.12 | 3.91 (≈ 4.73 µM) | – |
| CC[C@H]1OC(=O)C[C@@H](O)[C@H](C)[C@@H](O[C@@H]2O[C@H](C)[C@@H](O)[C@H](N(C)C)[C@H]2O)[C@@H](CCN2CC(C)CC(C)C2)C[C@@H](C)C(=O)/C=C/C(C)=C/[C@@H]1CN(C)Cc1cccnc1 (stereo partly drawn) [Compound 8b, (4R,5S,6S,7R,9R,11E,13E,15R,16R)-6-(((2R,3R,4S,5S,6R)-4-(dimethylamino)-3,5-dihydroxy-6-methyltetrahydro-2H-pyran-2-yl)oxy)-7-(2-(3,5-dimethylpiperidin-1-yl)ethyl)-16-ethyl-4-hydroxy-5,9,13-trimethyl-15-((methyl(pyridin-3-ylmethyl)amino)methyl)oxacyclohexadeca-11,13-diene-2,10-dione] | 0.98 (≈ 1.23 µM) | 3.91 (≈ 4.89 µM) | 125 (≈ 156 µM) | – |
| CC[C@H]1OC(=O)C[C@@H](O)[C@H](C)[C@@H](O[C@@H]2O[C@H](C)[C@@H](O)[C@H](N(C)C)[C@H]2O)[C@@H](CCN2CC(C)CC(C)C2)C[C@@H](C)C(=O)/C=C/C(C)=C/[C@@H]1CN1Cc2ccccc2C1 (stereo partly drawn) [Compound 8c, (4R,5S,6S,7R,9R,11E,13E,15R,16R)-6-(((2R,3R,4S,5S,6R)-4-(dimethylamino)-3,5-dihydroxy-6-methyltetrahydro-2H-pyran-2-yl)oxy)-7-(2-(3,5-dimethylpiperidin-1-yl)ethyl)-16-ethyl-4-hydroxy-15-(isoindolin-2-ylmethyl)-5,9,13-trimethyloxacyclohexadeca-11,13-diene-2,10-dione] | 7.82 (≈ 9.82 µM) | 15.6 (≈ 19.6 µM) | 125 (≈ 157 µM) | – |

The next lines start with results.

| MIC (M. gallisepticum BG44T) [µg/mL] | MIC (M. gallisepticum S6) [µg/mL] | MIC (M. hyorinis BTS-7) [µg/mL] | SMILES | other results |
| --- | --- | --- | --- | --- |
| < 0.12 | < 0.12 | 15.6 (≈ 19.4 µM) | CC[C@H]1OC(=O)C[C@@H](O)[C@H](C)[C@@H](O[C@@H]2O[C@H](C)[C@@H](O)[C@H](N(C)C)[C@H]2O)[C@@H](CCN2Cc3ccccc3C2)C[C@@H](C)C(=O)/C=C/C(C)=C/[C@@H]1CN(C)Cc1ccccc1 [Compound 12a, (4R,5S,6S,7R,9R,11E,13E,15R,16R)-15-((benzyl(methyl)amino)methyl)-6-(((2R,3R,4S,5S,6R)-4-(dimethylamino)-3,5-dihydroxy-6-methyltetrahydro-2H-pyran-2-yl)oxy)-16-ethyl-4-hydroxy-7-(2-(isoindolin-2-yl)ethyl)-5,9,13-trimethyloxacyclohexadeca-11,13-diene-2,10-dione] | – |
| < 0.12 | < 0.12 | 3.91 (≈ 5.09 µM) | CC[C@H]1OC(=O)C[C@@H](O)[C@H](C)[C@@H](O[C@@H]2O[C@H](C)[C@@H](O)[C@H](N(C)C)[C@H]2O)[C@@H](CCN2Cc3ccccc3C2)C[C@@H](C)C(=O)/C=C/C(C)=C/[C@@H]1CN1CCCCC1 [Compound 12b, (4R,5S,6S,7R,9R,11E,13E,15R,16R)-6-(((2R,3R,4S,5S,6R)-4-(dimethylamino)-3,5-dihydroxy-6-methyltetrahydro-2H-pyran-2-yl)oxy)-16-ethyl-4-hydroxy-7-(2-(isoindolin-2-yl)ethyl)-5,9,13-trimethyl-15-(piperidin-1-ylmethyl)oxacyclohexadeca-11,13-diene-2,10-dione] | – |
| < 0.12 | < 0.12 | 7.82 (≈ 10.3 µM) | CC[C@H]1OC(=O)C[C@@H](O)[C@H](C)[C@@H](O[C@@H]2O[C@H](C)[C@@H](O)[C@H](N(C)C)[C@H]2O)[C@@H](CCN2Cc3ccccc3C2)C[C@@H](C)C(=O)/C=C/C(C)=C/[C@@H]1CN(CC)CC [Compound 12c, (4R,5S,6S,7R,9R,11E,13E,15R,16R)-15-((diethylamino)methyl)-6-(((2R,3R,4S,5S,6R)-4-(dimethylamino)-3,5-dihydroxy-6-methyltetrahydro-2H-pyran-2-yl)oxy)-16-ethyl-4-hydroxy-7-(2-(isoindolin-2-yl)ethyl)-5,9,13-trimethyloxacyclohexadeca-11,13-diene-2,10-dione] | – |
| < 0.12 | < 0.12 | 3.91 (≈ 4.91 µM) | CC[C@H]1OC(=O)C[C@@H](O)[C@H](C)[C@@H](O[C@@H]2O[C@H](C)[C@@H](O)[C@H](N(C)C)[C@H]2O)[C@@H](CCN2Cc3ccccc3C2)C[C@@H](C)C(=O)/C=C/C(C)=C/[C@@H]1CN1CC(C)CC(C)C1 (stereo partly drawn) [Compound 12d, (4R,5S,6S,7R,9R,11E,13E,15R,16R)-6-(((2R,3R,4S,5S,6R)-4-(dimethylamino)-3,5-dihydroxy-6-methyltetrahydro-2H-pyran-2-yl)oxy)-15-((3,5-dimethylpiperidin-1-yl)methyl)-16-ethyl-4-hydroxy-7-(2-(isoindolin-2-yl)ethyl)-5,9,13-trimethyloxacyclohexadeca-11,13-diene-2,10-dione] | – |
